Results published in patent US11926613B2, “Kinase inhibitors for the treatment of central and peripheral nervous system disorders” (UNIVERSITY OF MIAMI, priority 2017, dated 2024).
pEC50: −log10 of the molar value.

Legend:
[1] = test system: neurons from hippocampi of E18 rat embryos; experiment: Neurite growth length (% NTL) in cultured E18 rat hippocampal neurons, 9-point dose response, 48 hours; type: cell-based; conditions: Rattus norvegicus, Neuron, 48 h; for activity at 0.078 µM: 78 nM; for activity at 0.156 µM: 156 nM; for activity at 0.312 µM: 312 nM; for activity at 0.625 µM: 625 nM
Method in brief: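 Dissociated E18 rat hippocampal neurons at 1500 cells/well on PDL were exposed 48 h to 9 concentrations from 20 μM down to 0.078125 μM. After PFA fixation and βIII-tubulin/Hoechst staining, ArrayScan imaging traced neurites in at least 200–300 neurons per condition to give % NTL.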

Primary Neurons = experiment: HCS neurite outgrowth assay (High Content Screening with Primary Neurons); type: cell-based; conditions: Primary neuron

Row | SMILES | activity at 0.078 µM [1] [%] | activity at 0.156 µM [1] [%] | activity at 0.312 µM [1] [%] | activity at 0.625 µM [1] [%] | activity at 1.25 µM [1] [%] | activity at 2.5 µM [1] [%] | activity at 5 µM [1] [%] | activity at 10 µM [1] [%] | activity at 20 µM [1] [%] | pEC50 (Primary Neurons)
1 | COc1ccc(O)c(C(=O)c2ccc(C(=O)N[C@@H]3CNC[C@H]3NC(=O)c3ccnc(N)n3)cc2)c1F [Example A36, 2-amino-N-[(3R,4R)-4-[4-(2-fluoro-6-hydroxy-3-methoxybenzoyl)benzamido]pyrrolidin-3-yl]pyrimidine-4-carboxamide] | 116 | 126 | 131 | 149 | 239 | 358 | 516 | 480 | 470 | 5.74
2 | COc1ccc(O)c(C(=O)c2ccc(C(=O)N[C@@H]3CNC[C@H]3NC(=O)c3ccc(O)cc3)cc2)c1F [Example A37, N-[(3R,4R)-4-[4-(2-fluoro-6-hydroxy-3-methoxybenzoyl)benzamido]pyrrolidin-3-yl]-4-hydroxybenzamide] | 100 | 109 | 113 | 107 | 113 | 124 | 132 | 155 | 212 | < 4.70
3 | COc1ccc(O)c(C(=O)c2ccc(C(=O)N[C@@H]3CNC[C@H]3NC(=O)c3cccnc3)cc2)c1F [Example A38, N-[(3R,4R)-4-[4-(2-fluoro-6-hydroxy-3-methoxybenzoyl)benzamido]pyrrolidin-3-yl]pyridine-3-carboxamide] | 108 | 102 | 103 | 96.6 | 100 | 100 | 106 | 100 | 87.7 | 5.50
4 | COc1ccc(O)c(C(=O)c2ccc(C(=O)N[C@@H]3CNC[C@H]3NC(=O)c3ccc(O)nc3)cc2)c1F [Example A39, N-[(3R,4R)-4-[4-(2-fluoro-6-hydroxy-3-methoxybenzoyl)benzamido]pyrrolidin-3-yl]-6-hydroxypyridine-3-carboxamide] | 96.3 | 93 | 85.5 | 80.5 | 83 | 87.3 | 98 | 98.9 | 101 | 5.42
5 | COc1ccc(O)c(C(=O)c2ccc(C(=O)N[C@@H]3CNC[C@H]3NC(=O)c3ccnc(O)c3)cc2)c1F [Example A40, N-[(3R,4R)-4-[4-(2-fluoro-6-hydroxy-3-methoxybenzoyl)benzamido]pyrrolidin-3-yl]-2-hydroxypyridine-4-carboxamide] | 86.3 | 91.2 | 86.2 | 86.2 | 94.1 | 108 | 101 | 106 | 121 | 5.02
6 | COc1ccc(O)c(C(=O)c2ccc(C(=O)N[C@@H]3CNC[C@H]3NC(=O)c3ccncn3)cc2)c1F [Example A41, N-[(3R,4R)-4-[4-(2-fluoro-6-hydroxy-3-methoxybenzoyl)benzamido]pyrrolidin-3-yl]pyrimidine-4-carboxamide] | 91.3 | 88.5 | 86.2 | 87 | 95.9 | 102 | 124 | 152 | 190 | 4.96
7 | COc1ccc(O)c(C(=O)c2ccc(C(=O)N[C@@H]3CNC[C@H]3NC(=O)c3ccc4[nH]ncc4c3)cc2)c1F [Example A42, N-[(3R,4R)-4-[4-(2-fluoro-6-hydroxy-3-methoxybenzoyl)benzamido]pyrrolidin-3-yl]-1H-indazole-5-carboxamide] | 115 | 110 | 126 | 118 | 169 | 255 | 403 | 431 | 369 | 5.61
8 | COc1ccc(O)c(C(=O)c2ccc(C(=O)N[C@@H]3CNC[C@H]3NC(=O)c3cn[nH]c3)cc2)c1F [Example A43, N-[(3R,4R)-4-[4-(2-fluoro-6-hydroxy-3-methoxybenzoyl)benzamido]pyrrolidin-3-yl]-1H-pyrazole-4-carboxamide] | 118 | 118 | 115 | 114 | 124 | 136 | 144 | 155 | 173 | 5.51
9 | COc1ccc(O)c(C(O)c2ccc(C(=O)N[C@@H]3CNC[C@H]3NC(=O)c3ccnc(N)n3)cc2)c1F (stereo partly drawn) [Example A44, 2-amino-N-[(3R,4R)-4-{4-[(2-fluoro-6-hydroxy-3-methoxyphenyl)(hydroxy)methyl]benzamido}pyrrolidin-3-yl]pyrimidine-4-carboxamide] | 94 | 87.1 | 78.8 | 76.4 | 99.4 | 96.2 | 104 | 103 | 105 | 5.69
10 | COc1ccc(O)c(Cc2ccc(C(=O)N[C@@H]3CNC[C@H]3NC(=O)c3ccnc(N)n3)cc2)c1F [Example A45, 2-amino-N-[(3R,4R)-4-{4-[(2-fluoro-6-hydroxy-3-methoxyphenyl)methyl]benzamido}pyrrolidin-3-yl]pyrimidine-4-carboxamide] | 96.5 | 90.2 | 83.7 | 87 | 84.8 | 93.3 | 89.1 | 97.2 | 111 | < 4.70
11 | COc1ccc(O)c(C(=O)c2ccc(C(=O)N[C@@H]3CNC[C@H]3NC(=O)Cc3cccnc3)cc2)c1F [Example A46, 4-(2-fluoro-6-hydroxy-3-methoxybenzoyl)-N-[(3R,4R)-4-[2-(pyridin-3-yl)acetamido]pyrrolidin-3-yl]benzamide] | 95.6 | 95 | 90.8 | 77.5 | 93.1 | 86.8 | 88.1 | 100 | 90.2 | 5.78
12 | COc1ccc(O)c(C(=O)c2ccc(C(=O)N[C@@H]3CNC[C@H]3NC(=O)Cc3cn[nH]c3)cc2)c1F [Example A47, 4-(2-fluoro-6-hydroxy-3-methoxybenzoyl)-N-[(3R,4R)-4-[2-(1H-pyrazol-4-yl)acetamido]pyrrolidin-3-yl]benzamide] | 100 | 99.3 | 99.7 | 96.8 | 104 | 112 | 122 | 128 | 162 | 5.13
13 | COc1ccc(O)c(C(=O)c2ccc(C(=O)N[C@@H]3CNC[C@H]3NC(=O)c3ccnc4[nH]cnc34)cc2)c1F [Example A48, N-[(3R,4R)-4-[4-(2-fluoro-6-hydroxy-3-methoxybenzoyl)benzamido]pyrrolidin-3-yl]-3H-imidazo[4,5-b]pyridine-7-carboxamide] | 109 | 117 | 116 | 120 | 144 | 219 | 332 | 461 | 421 | 5.22
14 | O=C(N[C@@H]1CNC[C@H]1NC(=O)c1ccc2[nH]ncc2c1)c1ccc(C(=O)c2c(O)cccc2F)cc1 [Example A49, N-[(3R,4R)-4-[4-(2-fluoro-6-hydroxybenzoyl)benzamido]pyrrolidin-3-yl]-1H-indazole-5-carboxamide] | 107 | 99.5 | 101 | 112 | 139 | 200 | 298 | 322 | 207 | 5.61
15 | Nc1nccc(C(=O)N[C@@H]2CNC[C@H]2NC(=O)c2ccc(C(=O)c3c(O)cccc3F)cc2)n1 [Example A50, 2-amino-N-[(3R,4R)-4-[4-(2-fluoro-6-hydroxybenzoyl)benzamido]pyrrolidin-3-yl]pyrimidine-4-carboxamide] | 113 | 113 | 118 | 136 | 194 | 285 | 431 | 561 | 457 | 5.44
16 | O=C(N[C@@H]1CNC[C@H]1NC(=O)c1ccc(C(=O)c2c(O)cccc2F)cc1)c1ccncc1 [Example A51, N-[(3R,4R)-4-[4-(2-fluoro-6-hydroxybenzoyl)benzamido]pyrrolidin-3-yl]pyridine-4-carboxamide] | 129 | 129 | 135 | 158 | 191 | 260 | 362 | 506 | 421 | 5.31
